# According to patent publication US20220323406A1, “METHODS AND COMPOSITIONS FOR DIFFERENTIATING STEM CELLS” (Massachusetts Institute of Technology, priority 2019, published 2022):
# Assays:
# [1] = tested on: ENR+CD organoids (ISC to Paneth cell differentiation); assay: Primary screen: basal (non-stimulated) lysozyme secretion LYZ.NS, 2.5-D 384-well ENR+CD organoid differentiation; type: cell-based, mouse; conditions: primary screen; for Z.LYZ.NS: standard z score
# Excerpt: (§1) High-throughput screening.
# [2] = tested on: ENR+CD organoids (ISC to Paneth cell differentiation); assay: Primary screen: CCh-stimulated lysozyme secretion LYZ.S, 2.5-D 384-well ENR+CD organoid differentiation; type: cell-based, mouse; conditions: primary screen
# Excerpt: as §1
# [3] = tested on: ENR+CD organoids; assay: Primary screen: ATP (CellTiter-Glo 3D, CTG) cell number/viability, 2.5-D 384-well ENR+CD organoids; conditions: primary screen; for Z.CTG: standard z score;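 as to all read-outs here: compounds given at plating and again on day 3 over a 6-day differentiation from ENR+CV stem-cell-enriched precursors, ATP measured on day 6, plate median as control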
# [4] = dose 0.08 uM, FC vs plate median
# [5] = dose 0.40 uM, FC vs plate median
# [6] = dose 2.00 uM, FC vs plate median
# [7] = dose 10.00 uM, FC vs plate median
# [8] = 1st dose row of the treatment (0.08 uM by row order; dose not reprinted)
# [9] = 2nd dose row of the treatment (0.40 uM by row order; dose not reprinted)
# [10] = 3rd dose row of the treatment (2.00 uM by row order; dose not reprinted)
# [11] = 4th dose row of the treatment (10.00 uM by row order; dose not reprinted)
compound,measurement,setting,value
C/C(=N\NC(=S)N1CCC1)c1ccccn1 [NSC 319726],Z.LYZ.NS,[1]; dose 0.08 uM,0.982
same,Z.LYZ.NS,[1]; dose 0.40 uM,−0.780
same,Z.LYZ.NS,[1]; dose 2.00 uM,−1.323
same,Z.LYZ.NS,[1]; dose 10.00 uM,−1.992
same,Dose.FC.LYZ.NS,[1]; [4],0.113 log2 fold change
same,Dose.FC.LYZ.NS,[1]; [5],−0.090 log2 fold change
same,Dose.FC.LYZ.NS,[1]; [6],−0.152 log2 fold change
same,Dose.FC.LYZ.NS,[1]; [7],−0.229 log2 fold change
same,Dose.FC.LYZ.S,[2]; [4],0.060 log2 fold change
same,Dose.FC.LYZ.S,[2]; [5],−0.035 log2 fold change
same,Dose.FC.LYZ.S,[2]; [6],−0.248 log2 fold change
same,Dose.FC.LYZ.S,[2]; [7],−0.327 log2 fold change
same,Z.CTG,[3]; dose 0.08 uM,0.316
same,Z.CTG,[3]; dose 0.40 uM,−0.441
same,Z.CTG,[3]; dose 2.00 uM,−1.068
same,Z.CTG,[3]; dose 10.00 uM,−4.555
same,Dose.FC.CTG,[3]; [4],0.132 log2 fold change
same,Dose.FC.CTG,[3]; [5],−0.185 log2 fold change
same,Dose.FC.CTG,[3]; [6],−0.447 log2 fold change
same,Dose.FC.CTG,[3]; [7],−1.907 log2 fold change
N#Cc1c(O)c2c(-c3ccc(-c4ccccc4O)cc3)csc2[nH]c1=O [A-769662],SSMD.LYZ.NS_Rep (strictly standardized mean difference),[1]; [8],0.286
same,SSMD.LYZ.NS_Rep (strictly standardized mean difference),[1]; [9],0.498
same,SSMD.LYZ.NS_Rep (strictly standardized mean difference),[1]; [10],0.554
same,SSMD.LYZ.NS_Rep (strictly standardized mean difference),[1]; [11],0.068
same,Dose.FC.LYZ.NS,[1]; dose 0.08 uM,0.045 log2 fold change
same,Z.LYZ.NS (standard z score),[1]; dose 0.08 uM,0.394
same,Dose.FC.LYZ.NS,[1]; dose 0.40 uM,0.069 log2 fold change
same,Z.LYZ.NS (standard z score),[1]; dose 0.40 uM,0.599
same,Dose.FC.LYZ.NS,[1]; dose 2.00 uM,0.054 log2 fold change
same,Z.LYZ.NS (standard z score),[1]; dose 2.00 uM,0.473
same,Dose.FC.LYZ.NS,[1]; dose 10.00 uM,0.009 log2 fold change
same,Z.LYZ.NS (standard z score),[1]; dose 10.00 uM,0.075
same,SSMD.LYZ.S_Rep (strictly standardized mean difference),[2]; [8],0.365
same,Z.LYZ.S (standard z score),[2]; [8],0.426
same,SSMD.LYZ.S_Rep (strictly standardized mean difference),[2]; [9],0.472
same,Z.LYZ.S (standard z score),[2]; [9],0.460
same,SSMD.LYZ.S_Rep (strictly standardized mean difference),[2]; [10],0.488
same,Z.LYZ.S (standard z score),[2]; [10],1.191
same,SSMD.LYZ.S_Rep (strictly standardized mean difference),[2]; [11],0.119
same,Z.LYZ.S (standard z score),[2]; [11],0.121
same,Dose.FC.LYZ.S,[2]; dose 0.08 uM,0.066 log2 fold change
same,Dose.FC.LYZ.S,[2]; dose 0.40 uM,0.071 log2 fold change
same,Dose.FC.LYZ.S,[2]; dose 2.00 uM,0.184 log2 fold change
same,Dose.FC.LYZ.S,[2]; dose 10.00 uM,0.019 log2 fold change
same,SSMD.CTG.Rep (strictly standardized mean difference),[3]; [8],−0.255
same,SSMD.CTG.Rep (strictly standardized mean difference),[3]; [9],0.019
same,SSMD.CTG.Rep (strictly standardized mean difference),[3]; [10],−0.312
same,SSMD.CTG.Rep (strictly standardized mean difference),[3]; [11],−0.056
same,Dose.FC.CTG,[3]; dose 0.08 uM,−0.074 log2 fold change
same,Z.CTG (standard z score),[3]; dose 0.08 uM,−0.177
same,Dose.FC.CTG,[3]; dose 0.40 uM,0.007 log2 fold change
same,Z.CTG (standard z score),[3]; dose 0.40 uM,0.016
same,Dose.FC.CTG,[3]; dose 2.00 uM,−0.127 log2 fold change
same,Z.CTG (standard z score),[3]; dose 2.00 uM,−0.304
same,Dose.FC.CTG,[3]; dose 10.00 uM,−0.015 log2 fold change
same,Z.CTG (standard z score),[3]; dose 10.00 uM,−0.036
